# Laboratory results as given in patent US11865128B2, “Aminoglycosides and uses thereof in treating genetic disorders” (Technion Research & Development Foundation Limited, priority 2010, dated 2024).
# “Also recorded” adds a separate entry of the source. Read-outs that look alike come from different tables or passages of the source.
# Assays:
# [1] = molecular target: Prokaryotic system (prokaryotic ribosome); assay: Prokaryotic translation inhibition, coupled transcription/translation, luciferase detection; type: biochemical
# Procedure: Prokaryotic and eukaryotic translation inhibition was quantified in coupled transcription/translation assays by using active luciferase detection, performed as described hereinabove. […] All the experiments were performed in duplicates and analogous results were obtained in three different experiments. In all biological tests, all tested aminoglycosides were in their sulfate salt forms. The concentrations reported refer to that of the free amine form of each aminoglycoside.
# In all biological experiments conducted, all tested aminoglycosides were in their sulfate salt forms. The concentrations reported in Table 3 refer to that of the free amine form of each aminoglycoside. Prokaryotic and eukaryotic translation inhibition was quantified in coupled transcription/translation assays as previously described. The half-maximal concentration (IC50) values were obtained from fitting concentration response curves to the data of at least three independent experiments, using GraFit 5 software. All the experiments were performed in duplicates and analogous results were obtained in three different experiments.
# [2] = system: nonsense mutation constructs R3X, R245X, G542X, W1282X, Q70X, R3381X (PCDH15, CFTR, IDUA, Dystrophin); assay: In vitro stop codon readthrough assay, p2Luc dual luciferase, TNT reticulocyte lysate; type: biochemical; conditions: cell-free, mutations tested; comparison in words from FIGS. 2, 3, 5-7
# Description: DNA fragments derived from PCDH15, CFTR, Dystrophin and IDUA cDNAs, including the tested nonsense mutation or the corresponding wild type (wt) codon, and four to six upstream and downstream flanking codons were created by annealing following pairs of complementary oligonucleotides:
# The fragments were inserted in frame into the polylinker of the p2Luc plasmid between either BamHI and SacI (p.R3X and p.R245X), or SalI and SacI (all the rest) restriction sites.
# For the in vitro readthrough assays, the obtained plasm ids, with addition of the tested aminoglycosides were transcribed and translated using the TNT Reticulocyte Lysate Quick Coupled Transcription/Translation System. Luciferase activity was determined after 90 minutes of incubation at 30° C., using the Dual Luciferase Reporter Assay System (Promega™).
# Initially, the influence of the chiral C5″-methyl group on readthrough potential was evaluated on the pseudo-trisaccharides NB118 and NB119 by using a dual luciferase reporter assay system as described hereinabove. Briefly, DNA fragments were cloned between BamHI and SacI restriction sites of the p2luc vector and the obtained constructs were transcribed and translated using TNT quick coupled transcription/translation system. The amount of the translated products was evaluated using the dual luciferase reporter assay system and used to calculate the suppression level.
# [3] = system: E. coli R477/100; assay: Antibacterial activity MIC, double-microdilution; type: cell-based, Escherichia coli; conditions: read-out: Antibacterial activity MIC E. coli R477/100
# [4] = system: nonsense mutation constructs R3X, R245X, Q70X, W1282X, G542X in HEK-293 cells; assay: Ex vivo stop codon readthrough assay, p2luc constructs transfected to HEK-293 cells; type: cell-based, human; conditions: ex vivo in HEK-293, all the mutations tested, FIGS. 4, 8-10
# Procedure: For the ex vivo readthrough assays, the constructs harboring the R3X, R245X, Q70X and W1282X mutations were transfected to HEK-293 cells with Lipofectamine 2000 (Invitrogen) and addition of the tested compounds was performed 6 hours post transfection. The cells were harvested following 16 hours of incubation with the tested aminoglycosides. Stop codon readthrough was calculated as previously described (see, Grentzmann, G. et al., RNA, 1998, 4, p. 479).
# The constructs were transfected into a human embryonic kidney cell line (HEK-293) and incubated with varying concentrations of NB122, NB123, NB54 and the control drug gentamicin, and the results are presented in FIGS. 4A-D.
# As described hereinabove, the constructs of p2luc plasmid harboring the R3X, R245X, Q70X and W1282X mutations were transfected to HEK-293 cells using lipofectamine2000 and the tested compounds were added 6 hours post transfection. Cells were harvested after 16 hours incubation and luciferase activity was determined using the dual luciferase reporter assay system (Promega™). Stop codon readthrough was calculated as described previously, and the results are averages of at least three independent experiments.
# [5] = system: HEK-293 cells; assay: Cell toxicity LC50 in HEK-293 cells; type: cell-based
# Procedure: (§1) In order to ensure suitable cell viability for each of the tested compounds at the concentrations tested, cell toxicity was evaluated for each compound by measuring the half-maximal-lethal concentration value (LC50 values) in HEK-293 and HFF (human foreskin fibroblasts) cells.
# (§2) The percentages of cell viability were calculated as the ratio between the numbers of living cells in cultures grown in the presence of the tested compounds, versus cultures grown under the identical protocol but without the tested compound. The results represent averages of at least three independent experiments.
# (§3) The half-maximal lethal concentration (LC50) values were obtained from fitting concentration-response curves to the data of at least three independent experiments, using GraFit 5 software.
# [6] = system: B. subtilis ATCC6633; assay: Antibacterial activity MIC, double-microdilution; type: cell-based, Bacillus subtilis; conditions: read-out: Antibacterial activity MIC B. subtilis ATCC6633
# [7] = molecular target: Eukaryotic system (eukaryotic cytoplasmic ribosome); assay: Eukaryotic translation inhibition, coupled transcription/translation, luciferase detection; type: biochemical; conditions: for Prokaryotic versus Eukaryotic selectivity IC50^Euk/IC50^Pro: ratio of eukaryotic to prokaryotic translation inhibition IC50
# Description: Prokaryotic and eukaryotic translation inhibition was quantified in coupled transcription/translation assays by using active luciferase detection, performed as described hereinabove. […] In all biological tests, all tested aminoglycosides were in their sulfate salt forms. The concentrations reported refer to that of the free amine form of each aminoglycoside.
# In all biological experiments conducted, all tested aminoglycosides were in their sulfate salt forms. The concentrations reported in Table 3 refer to that of the free amine form of each aminoglycoside. Prokaryotic and eukaryotic translation inhibition was quantified in coupled transcription/translation assays as previously described. The half-maximal concentration (IC50) values were obtained from fitting concentration response curves to the data of at least three independent experiments, using GraFit 5 software.
# [8] = system: HFF (human foreskin fibroblasts) cells; assay: Cell toxicity LC50 in HFF cells; type: cell-based
# Procedure: as §1, §2, §3
# [9] = system: Prokaryotic system (prokaryotic ribosome); conditions: shown previously; cited from earlier work
# [10] = Cell toxicity LC50 in HEK-293 cells; type: cell-based; conditions: human, HEK-293 cells, read-out: Cell toxicity LC50 HEK-293
# Procedure: as §1, §2, §3
# [11] = Cell toxicity LC50 in HFF cells; type: cell-based; conditions: human, HFF (human foreskin fibroblast) cells, read-out: Cell toxicity LC50 HFF
# Procedure: as §1, §2, §3
# [12] = Table 2, read-out: Translation Inhibition Prokaryotic system IC50
# [13] = Table 3, read-out: Translation Inhibition IC50^Pro
# [14] = Table 2, read-out: Translation Inhibition Eukaryotic System IC50
# [15] = Table 3, read-out: Translation Inhibition IC50^Euk
# [16] = Table 1, read-out: Translation inhibition Prokaryotic system IC50
# [17] = Table 1, read-out: Translation inhibition Eukaryotic System IC50
compound,measurement,setting,value
"C[C@@H](O)C1O[C@H](O[C@@H]2C(N)C[C@@H](N)C(O)[C@H]2O[C@@H]2O[C@H]([C@@H](C)N)[C@H](O)C2O)C(N)[C@@H](O)[C@@H]1O (stereo partly drawn) [NB125, 6′-(R)-Methyl-5-O-(5-amino-5,6-dideoxy-β-D-allofuranosyl)-paromamine]",IC50,[1]; [12],1860 ± 173 nM
same,IC50,[1]; [13],1860 ± 173 nM
same,in vitro readthrough activity (stop codon suppression level),[2],smaller comparatively
same,MIC,[3]; Table 2,1536 µM
same,"observed efficacy of aminoglycoside-induced readthrough, order",[4],NB124>NB125>NB74>gentamicin
same,CC50,[5]; Table 2,16.5 ± 3.1 mM
same,MIC,[6]; Table 2,96 µM
same,IC50,[7]; [14],7.96 ± 0.27 µM
same,IC50,[7]; [15],7.96 ± 0.27 µM
same,Prokaryotic versus Eukaryotic selectivity IC50^Euk/IC50^Pro,[7],4.3
same,CC50,[8]; Table 2,7.59 ± 0.18 mM
"NC[C@H]1O[C@@H](O[C@@H]2C(O)[C@H](N)CC(N)[C@H]2O[C@H]2OC(CO)[C@@H](O)[C@H](O)C2N)C(O)[C@H]1O (some centres unmarked) [NB30, reference compound]",IC50,[1]; [16],460 ± 50 nM
same,IC50,[1]; [13],460 ± 50 nM
same,MIC,"[3]; Escherichia coli, R477/100, Table 1",790 µM
same,weaker inhibitors of prokaryotic translation than gentamicin and paromomycin,[9],about 10 fold
same,CC50,[10]; Table 1,21.4 mM
same,MIC,"[6]; Bacillus subtilis, ATCC6633, Table 1, free amine concentration, sulfate salts tested",100 µM
same,IC50,[7]; [17],31 µM
same,IC50,[7]; [15],31 ± 4 µM
same,Prokaryotic versus Eukaryotic selectivity IC50^Euk/IC50^Pro,[7],68
same,CC50,[11]; Table 1,21.8 ± 0.9 mM
"CC(N)C1OC(OC2C(O)C(NC(=O)C(O)CCN)CC(N)C2OC2OC(C(C)O)C(O)C(O)C2N)C(O)C1O [NB127, 6′-(R)-Methyl-5-O-(5-amino-5,6-dideoxy-α-L-talofuranosyl)-1-N—[(S)-4-amino-2-hydroxy-butanoyl] paromamine]",IC50,[1]; [12],1750 ± 274 nM
same,IC50,[1]; [13],1750 ± 274 nM
same,in vitro readthrough activity (stop codon suppression level),[2],significantly stronger readthrough inducers than the corresponding counterparts
same,MIC,[3]; Table 2,384 µM
same,"observed efficacy of aminoglycoside-induced readthrough, order",[4],NB127 NB128>NB84>gentamicin
same,CC50,[5]; Table 2,5.09 ± 0.27 mM
same,MIC,[6]; Table 2,192 µM
same,IC50,[7]; [14],0.73 ± 0.07 µM
same,IC50,[7]; [15],0.73 ± 0.07 µM
same,Prokaryotic versus Eukaryotic selectivity IC50^Euk/IC50^Pro,[7],0.4
same,CC50,[8]; Table 2,6.48 ± 0.26 mM
Gentamicin [reference compound],IC50,[1]; [16],28 ± 4 nM
same,IC50,[1]; [12],28 ± 4 nM
same,IC50,[1]; [13],28 ± 4 nM
same,MIC,[3]; Table 1,6 µM
same,MIC,[3]; Table 2,6 µM
same,"observed efficacy of aminoglycoside-induced readthrough, order",[4],NB127 NB128>NB84>gentamicin
same,"observed efficacy of aminoglycoside-induced readthrough, order",[4]; listed as gentamicin,NB122≥NB123>NB54>gentamicin; also recorded: NB124>NB125>NB74>gentamicin
same,CC50,[5]; Table 1,2.5 ± 0.3 mM
same,CC50,[5]; Table 2,2.65 ± 0.54 mM
same,MIC,"[6]; Table 1, free amine concentration, sulfate salts tested",<0.75 µM
same,MIC,[6]; Table 2,<0.75 µM
same,more selective to prokaryotic versus eukaryotic ribosome,[7],"2,214 fold"
same,IC50,[7]; [17],62 ± 9 µM
same,IC50,[7]; [14],62 ± 9 µM
same,IC50,[7]; [15],62 ± 9 µM
same,Prokaryotic versus Eukaryotic selectivity IC50^Euk/IC50^Pro,[7],"2,214"
same,CC50,[8]; Table 1,3.2 ± 0.3 mM
same,CC50,[8]; Table 2,3.21 ± 0.31 mM
"C[C@@H](N)[C@H]1O[C@@H](O[C@@H]2[C@@H](O)[C@H](NC(=O)[C@@H](O)CCN)C[C@H](N)[C@H]2O[C@H]2O[C@H]([C@@H](C)O)[C@@H](O)[C@H](O)[C@H]2N)[C@H](O)[C@@H]1O [NB128, 6′-(R)-Methyl-5-O-(5-amino-5,6-dideoxy-β-D-allofuranosyl)-1-N—[(S)-4-amino-2-hydroxy-butanoyl] paromamine]",IC50,[1]; [12],1750 ± 145 nM
same,IC50,[1]; [13],1750 ± 145 nM
same,in vitro readthrough activity (stop codon suppression level),[2],significantly stronger readthrough inducers than the corresponding counterparts
same,MIC,[3]; Table 2,384 µM
same,"observed efficacy of aminoglycoside-induced readthrough, order",[4],NB127 NB128>NB84>gentamicin
same,CC50,[5]; Table 2,5.35 ± 0.31 mM
same,MIC,[6]; Table 2,96 µM
same,IC50,[7]; [14],0.89 ± 0.07 µM
same,IC50,[7]; [15],0.89 ± 0.07 µM
same,Prokaryotic versus Eukaryotic selectivity IC50^Euk/IC50^Pro,[7],0.5
same,CC50,[8]; Table 2,2.78 ± 0.11 mM
"C[C@@H](O)C1O[C@H](O[C@@H]2C(N)C[C@@H](N)[C@@H](O)C2O[C@@H]2O[C@H](CN)[C@H](O)C2O)[C@@H](N)C(O)[C@@H]1O (some centres unmarked) [NB74, reference compound]",IC50,[1]; [12],1130 ± 120 nM
same,IC50,[1]; [13],1130 ± 120 nM
same,"observed efficacy of aminoglycoside-induced readthrough, order",[4],NB124>NB125>NB74>gentamicin
same,weaker inhibitors of prokaryotic translation than gentamicin and paromomycin,[9],about 10 fold
same,CC50,[10]; Table 2,22.2 ± 1.06 mM
same,MIC,"[6]; Bacillus subtilis, ATCC6633, Table 2",42 µM
same,CC50,[11]; Table 2,21.3 ± 1.72 mM
